These results are taken from US9615576B2, “Pesticidal compositions and processes related thereto” (Dow AgroSciences LLC, priority 2011, dated 2017).

The term mortality denotes the percentage killed.

Where two headings read alike, the source gives them in different places.

Assay [1] has as its system Corn Earworm (CEW) (Helicoverpa zea). The assay can be described thus: Bioassays on Corn Earworm (CEW), 128-well diet tray assay. Format: in vivo. Particulars: 168 h, read-out: CEW Rating (% mortality). The method in brief: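 Second-instar larvae (one to five per well) placed on artificial diet treated with 50 μg/cm^2 compound in 90:10 acetone-water, dried; eight wells per compound. Held at 25° C, 14:10 light-dark, five to seven days; percent mortality averaged over wells.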

Assay [2] deals with Beet Armyworm (BAW) (Spodoptera exigua). The assay is described as follows: Bioassays on Beet Armyworm (BAW), 128-well diet tray assay. The assay is classed as in vivo. Particulars: 168 h, read-out: BAW Rating (% mortality). The method in brief:
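Second-instar larvae (1–5 per well) on artificial diet surface-treated with 50 μg/cm^2 compound applied in 90:10 acetone-water and dried; eight wells per compound. Held 5–7 days at 25° C., 14:10 light-dark. Percent mortality scored per well and averaged over eight wells.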

The mark [3] stands for this setting: 50 μg/cm^2 test compound on artificial diet, second instar larvae, 25° C., five to seven days, average of eight wells.

Take `CCNC(=S)NCc1ccc(/C=C/C(c2cc(Cl)c(Cl)c(Cl)c2)C(F)(F)F)cc1Cl` (stereo not drawn) [CC37, (E)-1-(2-chloro-4-(4,4,4-trifluoro-3-(3,4,5-trichlorophenyl)but-1-en-1-yl)benzyl)-3-ethylthiourea]: the mortality at 50 µg/cm2 in assay [1] (setting [3]) and in assay [2] (setting [3]) was 50 to 100% each time.
As for `C=CCNC(=S)NCc1ccc(/C=C/C(c2cc(Cl)c(Cl)c(Cl)c2)C(F)(F)F)cc1Cl` (stereo not drawn) [CC38], the mortality at 50 µg/cm2 in assay [1] (setting [3]) and in assay [2] (setting [3]) was 50 to 100% each time.
Consider `CC(C)(C)OC(=O)NCc1ccc(/C=C/C(c2cc(Cl)c(Cl)c(Cl)c2)C(F)(F)F)cc1Cl` (stereo not drawn) [CC39], for which the mortality at 50 µg/cm2 in assay [1] (setting [3]) and in assay [2] (setting [3]) was 0% throughout.
As for `O=C(NCc1ccc(/C=C/C(c2cc(Cl)c(Cl)c(Cl)c2)C(F)(F)F)cc1Cl)Oc1ccccc1Cl` (stereo not drawn) [CC40], the mortality at 50 µg/cm2 in assay [1] was 50 to 100%; in assay [2], 0%.
Regarding `COC(=O)C(=O)NCc1ccc(/C=C/C(c2cc(Cl)c(Cl)c(Cl)c2)C(F)(F)F)cc1Cl` (stereo not drawn) [CC41, (E)-methyl 2-((2-chloro-4-(4,4,4-trifluoro-3-(3,4,5-trichlorophenyl)but-1-en-1-yl)benzyl)amino)-2-oxoacetate], the mortality at 50 µg/cm2 in assay [1] (setting [3]) and in assay [2] (setting [3]) was 0% each time.
In the case of `O=C(NCc1ccc(/C=C/C(c2cc(Cl)c(Cl)c(Cl)c2)C(F)(F)F)cc1Cl)C(=O)NCC(F)(F)F` (stereo not drawn) [CC42, (E)-N^1-(2-chloro-4-(4,4,4-trifluoro-3-(3,4,5-trichlorophenyl)but-1-en-1-yl)benzyl)-N^2-(2,2,2-trifluoroethyl)oxalamide], the mortality at 50 µg/cm2 in assay [1] (setting [3]) and in assay [2] (setting [3]) was 0% in each case.
Take `FC(F)(F)C(/C=C/c1ccc(CNc2ccccn2)c(Cl)c1)c1cc(Cl)c(Cl)c(Cl)c1` (stereo not drawn) [CC43, (E)-N-(2-chloro-4-(4,4,4-trifluoro-3-(3,4,5-trichlorophenyl)but-1-en-1-yl)benzyl)pyridin-2-amine]: the mortality at 50 µg/cm2 lay in the range of 0 to 50% in assay [1] (setting [3]) and 50 to 100% in assay [2] (setting [3]).
As to `O=C(CC(F)(F)F)NCc1ncc(/C=C/C(c2cc(Cl)c(Cl)c(Cl)c2)C(F)(F)F)cc1Cl` (stereo not drawn) [CC44, (E)-N-((3-chloro-5-(4,4,4-trifluoro-3-(3,4,5-trichlorophenyl)-but-1-en-1-yl)pyridin-2-yl)methyl)-3,3,3-trifluoropropanamide], the mortality at 50 µg/cm2 in assay [1] (setting [3]) and in assay [2] (setting [3]) was 50 to 100% in each case.
Consider `O=C(NCc1ncc(/C=C/C(c2cc(Cl)c(Cl)c(Cl)c2)C(F)(F)F)cc1Cl)C1CC1` (stereo not drawn) [CC45], for which the mortality at 50 µg/cm2 in assay [1] (setting [3]) and in assay [2] (setting [3]) was 50 to 100% each time.
Regarding `O=C(CC(F)(F)F)NCc1ccc(/C=C/C(c2cc(Cl)c(Cl)c(Cl)c2)C(F)(F)F)c2ccccc12` (stereo not drawn) [CC46, (E)-3,3,3-trifluoro-N-((4-(4,4,4-trifluoro-3-(3,4,5-trichlorophenyl)but-1-en-1-yl)naphthalen-1-yl)methyl)propanamide], the mortality at 50 µg/cm2 was 50 to 100% in assay [1] (setting [3]) and 0% in assay [2] (setting [3]).
For the compound `O=C(NCc1ccc(/C=C/C(c2cc(Cl)cc(Cl)c2)C(F)(F)F)c2ccccc12)C1CC1` (stereo not drawn) [CC47], the mortality at 50 µg/cm2 in assay [1] (setting [3]) and in assay [2] (setting [3]) was 0% throughout.
As to `O=C(NCc1ccc(/C=C/C(c2cc(Cl)c(Cl)c(Cl)c2)C(F)(F)F)c2ccccc12)C1CC1` (stereo not drawn) [CC48], the mortality at 50 µg/cm2 in assay [1] (setting [3]) and in assay [2] (setting [3]) was 0% throughout.
On to `CCNC(=O)NCc1ccc(/C=C/C(c2cc(Cl)c(Cl)c(Cl)c2)C(F)(F)F)c2ccccc12` (stereo not drawn) [CC49, (E)-1-ethyl-3-((4-(4,4,4-trifluoro-3-(3,4,5-trichlorophenyl)but-1-en-1-yl)naphthalen-1-yl)methyl)urea], for which the mortality at 50 µg/cm2 in assay [1] (setting [3]) and in assay [2] (setting [3]) was 0% each time.
With `O=C(NNc1ccc(/C=C/C(c2cc(Cl)c(Cl)c(Cl)c2)C(F)(F)F)cc1)C1CC1` (stereo not drawn) [CC50, (E)-N′-(4-(4,4,4-trifluoro-3-(3,4,5-trichlorophenyl)but-1-en-1-yl)phenyl)cyclopropanecarbohydrazide], the mortality at 50 µg/cm2 in assay [1] (setting [3]) and in assay [2] (setting [3]) was 50 to 100% in each case.
Turning to `O=C(CC(F)(F)F)NNc1ccc(/C=C/C(c2cc(Cl)c(Cl)c(Cl)c2)C(F)(F)F)cc1` (stereo not drawn) [CC51], the mortality at 50 µg/cm2 in assay [1] (setting [3]) and in assay [2] (setting [3]) was 50 to 100% each time.
For the compound `O=C(NOc1ccc(/C=C/C(c2cc(Cl)c(Cl)c(Cl)c2)C(F)(F)F)cc1)C1CC1` (stereo not drawn) [CC52, (E)-N-(4-(4,4,4-trifluoro-3-(3,4,5-trichlorophenyl)but-1-en-1-yl)phenoxy)cyclopropanecarboxamide], the mortality at 50 µg/cm2 is 0% in assay [1] (setting [3]) and 50 to 100% in assay [2] (setting [3]).
For `O=C(CC(F)(F)F)NOc1ccc(/C=C/C(c2cc(Cl)c(Cl)c(Cl)c2)C(F)(F)F)cc1` (stereo not drawn) [CC53], the mortality at 50 µg/cm2 in assay [1] (setting [3]) and in assay [2] (setting [3]) was 0% throughout.
For `O=C(CC(F)(F)F)NCc1ccc(/C=C\C(c2cc(Cl)c(Cl)c(Cl)c2)C(F)(F)F)cc1` (stereo not drawn) [CC54, (Z)-3,3,3-trifluoro-N-(4-(4,4,4-trifluoro-3-(3,4,5-trichlorophenyl)but-1-en-1-yl)benzyl)propanamide], the mortality at 50 µg/cm2 in assay [1] (setting [3]) and in assay [2] (setting [3]) was 50 to 100% each time.
On to `FC(F)(F)C(/C=C/c1ccc(-n2cncn2)cc1)c1cc(Cl)cc(Cl)c1` (stereo not drawn) [DC1, (E)-1-(4-(3-(3,5-dichlorophenyl)-4,4,4-trifluorobut-1-en-1-yl)phenyl)-1H-1,2,4-triazole], for which the mortality at 50 µg/cm2 in assay [1] (setting [3]) and in assay [2] (setting [3]) was 50 to 100% each time.
As for `FC(F)(F)C(/C=C/c1ccc(-n2cncn2)cc1)c1cccc(Cl)c1` (stereo not drawn) [DC2], the mortality at 50 µg/cm2 in assay [1] (setting [3]) and in assay [2] (setting [3]) was 0% each time.
For the compound `FC(F)(F)C(/C=C/c1ccc(-n2cncn2)cc1)c1ccccc1` (stereo not drawn) [DC3], the mortality at 50 µg/cm2 in assay [1] (setting [3]) is 0%; in assay [2] (setting [3]) it was 0 to 50%.
The matching figures for `FC(F)(F)C(/C=C/c1ccc(-n2cncn2)cc1)c1ccc(Cl)cc1` (stereo not drawn) [DC4]: 0% and 50 to 100%.
The matching figures for `Cc1ccc(C(/C=C/c2ccc(-n3cncn3)cc2)C(F)(F)F)cc1` (stereo not drawn) [DC5]: 0% and 0%.
For the compound `COc1ccc(C(/C=C/c2ccc(-n3cncn3)cc2)C(F)(F)F)cc1` (stereo not drawn) [DC6], the mortality at 50 µg/cm2 in assay [1] (setting [3]) and in assay [2] (setting [3]) was 0% throughout.
As to `Fc1ccc(C(/C=C/c2ccc(-n3cncn3)cc2)C(F)(F)F)cc1` (stereo not drawn) [DC7], the results for the mortality at 50 µg/cm2 in assay [1] (setting [3]) and in assay [2] (setting [3]) were 0% and 50 to 100%, respectively.
As for `Fc1cc(F)cc(C(/C=C/c2ccc(-n3cncn3)cc2)C(F)(F)F)c1` (stereo not drawn) [DC8], the mortality at 50 µg/cm2 in assay [1] (setting [3]) is 0%; in assay [2] (setting [3]) it was 50 to 100%.
The corresponding values for `Fc1cccc(C(/C=C/c2ccc(-n3cncn3)cc2)C(F)(F)F)c1` (stereo not drawn) [DC9] are 0% and 0%.
The matching figures for `Fc1ccccc1C(/C=C/c1ccc(-n2cncn2)cc1)C(F)(F)F` (stereo not drawn) [DC10]: 0% and 0%.
The matching figures for `Cc1cc(C)cc(C(/C=C/c2ccc(-n3cncn3)cc2)C(F)(F)F)c1` (stereo not drawn) [DC11]: 0% and 50 to 100%.
On to `FC(F)(F)C(/C=C/c1ccc(-n2cncn2)cc1)c1ccc(Cl)c(Cl)c1` (stereo not drawn) [DC12], for which the mortality at 50 µg/cm2 in assay [1] (setting [3]) and in assay [2] (setting [3]) was 50 to 100% each time.
As for `FC(F)(F)C(/C=C/c1ccc(-n2cncn2)cc1)c1ccc(Cl)cc1Cl` (stereo not drawn) [DC13], the mortality at 50 µg/cm2 in assay [1] (setting [3]) and in assay [2] (setting [3]) was 50 to 100% each time.
For the compound `FC(F)(F)C(/C=C/c1ccc(-n2cncn2)cc1)c1cccc(Cl)c1Cl` (stereo not drawn) [DC14], the mortality at 50 µg/cm2 in assay [1] (setting [3]) and in assay [2] (setting [3]) was 0% throughout.
In the case of `FC(F)(F)C(/C=C/c1ccc(-n2cncn2)cc1)c1cc(Cl)ccc1Cl` (stereo not drawn) [DC15], the mortality at 50 µg/cm2 in assay [1] (setting [3]) and in assay [2] (setting [3]) was 0% in each case.
Regarding `FC(F)(F)c1cc(C(/C=C/c2ccc(-n3cncn3)cc2)C(F)(F)F)cc(C(F)(F)F)c1` (stereo not drawn) [DC16], the mortality at 50 µg/cm2 in assay [1] (setting [3]) and in assay [2] (setting [3]) was 50 to 100% each time.
`FC(F)(F)C(/C=C/c1ccc(-n2cncn2)cc1)c1cc(Cl)cc(Cl)c1Cl` (stereo not drawn) [DC17]: the mortality at 50 µg/cm2 in assay [1] (setting [3]) and in assay [2] (setting [3]) was 50 to 100% throughout.
`FC(F)(F)C(/C=C/c1ccc(-n2cncn2)cc1)c1cc(Cl)c(Cl)c(Cl)c1` (stereo not drawn) [DC18]: the mortality at 50 µg/cm2 in assay [1] (setting [3]) and in assay [2] (setting [3]) was 50 to 100% each time.
Take `FC(F)(F)c1cc(Cl)cc(C(/C=C/c2ccc(-n3cncn3)cc2)C(F)(F)F)c1` (stereo not drawn) [DC19]: the mortality at 50 µg/cm2 in assay [1] (setting [3]) and in assay [2] (setting [3]) was 50 to 100% each time.
`COc1c(Cl)cc(C(/C=C/c2ccc(-n3cncn3)cc2)C(F)(F)F)cc1Cl` (stereo not drawn) [DC20]: the mortality at 50 µg/cm2 is 0% in assay [1] (setting [3]) and 50 to 100% in assay [2] (setting [3]).
For the compound `Cc1ncn(-c2ccc(/C=C/C(c3cc(Cl)cc(Cl)c3)C(F)(F)F)cc2)n1` (stereo not drawn) [DC21], the mortality at 50 µg/cm2 in assay [1] (setting [3]) and in assay [2] (setting [3]) was 0% in each case.
Consider `O=[N+]([O-])c1ncn(-c2ccc(/C=C/C(c3cc(Cl)cc(Cl)c3)C(F)(F)F)cc2)n1` (stereo not drawn) [DC22], for which the mortality at 50 µg/cm2 in assay [1] (setting [3]) and in assay [2] (setting [3]) was 0% each time.
For `Cc1ncnn1-c1ccc(/C=C/C(c2cc(Cl)cc(Cl)c2)C(F)(F)F)cc1` (stereo not drawn) [DC23], the mortality at 50 µg/cm2 in assay [1] (setting [3]) is 50 to 100%; in assay [2] (setting [3]), 0%.
The matching figures for `CC(=O)c1ncnn1-c1ccc(/C=C/C(c2cc(Cl)cc(Cl)c2)C(F)(F)F)cc1` (stereo not drawn) [DC24]: 0% and 0%.
